What was measured:
[1] = prior-art statement; tissue autofluorescence typically 0.3-0.4 ns; cited from earlier work
[2] = Fluorescence quantum yield F; assay type: physicochemical; details: directly, 10 and 40 days after dialysis
[3] = Fluorescence level measured under optical device (capillaries); details: approximately 25 minutes after first measurement; 2.5 nmoles ICG in water, 0.5 nmoles as nanoemulsions
[4] = Behaviour in isotonic medium (154 mM sodium chloride); assay type: physicochemical

indocyanine green [ICG]
fluorescence lifetime of ICG [1]: 0.5 ns | stability of quantum yield over time [2]: the quantum yield remains stable over time, unlike that of free ICG in water | fluorescence level over time [3]: reduction over time of the fluorescence level | behaviour in isotonic medium [4]: flocculates
